Values of other authors, collected in patent publication US20070025945A1, “Stabilized pharmaceutical and cosmetic composition of catechins or derivatives thereof” (Anagen Therapeutics, Inc., priority 2005, published 2007).

Experiments:
sebum production = conditions: topical application directly to the forehead
[1] = test system: 5-alpha-reductase isozyme I / isozyme II; conditions: 5-alpha-reductase isozymes
[2] = test system: teleocidin-induced tumor promotion; conditions: topically applied to skin; mice previously initiated with DMBA

Structure (SMILES) | sebum production from the human forehead (sebum production) | activity against isozyme I versus isozyme II [1] | teleocidin-induced tumor promotion [2]
O=C(O[C@@H]1Cc2c(O)cc(O)cc2O[C@@H]1c1cc(O)c(O)c(O)c1)c1cc(O)c(O)c(O)c1 [EGCG, (−)-epigallocatechin-3-gallates] | inhibited | more active against isozyme I than isozyme II | inhibits
O=C(O[C@@H]1Cc2c(O)cc(O)cc2O[C@@H]1c1ccc(O)c(O)c1)c1cc(O)c(O)c(O)c1 [ECG, (−)-epicatechin-3-gallates] |  | more active against isozyme I than isozyme II | 
CCCCC/C=C\C/C=C\C/C=C\CCCCC(=O)O [gamma-linolenic acid] | inhibited |  | 
